pIC50: −log10 of the molar value.

The target in the first assay is T1, Rho-associated protein kinase 1 (Homo sapiens, UniProt Q13464). The assay can be described thus: Inhibition of ROCK1 (unknown origin) by HTRF assay.
T1 sequence (Q13464 whole entry): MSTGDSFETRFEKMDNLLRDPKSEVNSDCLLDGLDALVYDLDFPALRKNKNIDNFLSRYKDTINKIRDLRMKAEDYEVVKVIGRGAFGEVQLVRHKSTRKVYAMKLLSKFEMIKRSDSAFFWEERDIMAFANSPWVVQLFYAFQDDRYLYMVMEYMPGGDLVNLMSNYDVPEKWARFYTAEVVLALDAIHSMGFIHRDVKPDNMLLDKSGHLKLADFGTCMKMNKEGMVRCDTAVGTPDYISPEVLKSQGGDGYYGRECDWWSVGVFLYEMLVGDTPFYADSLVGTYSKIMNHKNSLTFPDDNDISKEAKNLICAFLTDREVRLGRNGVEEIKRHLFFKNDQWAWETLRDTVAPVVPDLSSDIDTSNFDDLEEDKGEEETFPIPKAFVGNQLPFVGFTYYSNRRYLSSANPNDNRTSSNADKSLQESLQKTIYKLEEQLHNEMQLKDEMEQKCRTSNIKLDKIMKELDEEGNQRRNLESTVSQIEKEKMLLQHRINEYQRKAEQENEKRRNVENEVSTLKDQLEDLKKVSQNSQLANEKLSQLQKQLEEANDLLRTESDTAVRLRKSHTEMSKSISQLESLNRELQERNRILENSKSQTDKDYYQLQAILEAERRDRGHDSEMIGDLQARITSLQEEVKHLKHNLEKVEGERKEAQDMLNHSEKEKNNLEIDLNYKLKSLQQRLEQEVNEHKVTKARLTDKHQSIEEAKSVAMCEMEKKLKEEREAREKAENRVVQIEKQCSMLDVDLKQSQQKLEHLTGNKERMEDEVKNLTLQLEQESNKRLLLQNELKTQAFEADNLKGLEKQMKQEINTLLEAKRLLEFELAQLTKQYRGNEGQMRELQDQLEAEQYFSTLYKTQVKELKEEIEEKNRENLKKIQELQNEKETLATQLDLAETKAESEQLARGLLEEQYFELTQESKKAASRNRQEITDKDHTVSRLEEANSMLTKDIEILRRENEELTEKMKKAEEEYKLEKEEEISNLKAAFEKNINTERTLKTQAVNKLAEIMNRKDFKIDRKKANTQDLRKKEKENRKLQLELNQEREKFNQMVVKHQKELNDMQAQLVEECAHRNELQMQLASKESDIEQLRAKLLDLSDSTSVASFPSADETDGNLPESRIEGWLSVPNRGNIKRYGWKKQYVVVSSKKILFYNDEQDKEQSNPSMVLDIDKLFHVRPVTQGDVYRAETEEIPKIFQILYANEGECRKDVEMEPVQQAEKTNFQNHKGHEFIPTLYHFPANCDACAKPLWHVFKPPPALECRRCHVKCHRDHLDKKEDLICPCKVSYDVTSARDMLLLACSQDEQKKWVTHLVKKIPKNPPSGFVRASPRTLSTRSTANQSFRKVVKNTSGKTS
What is called pIC50 is −log10 of the IC50, conventionally taken in molar units. Read a low pIC50 as a high IC50. The compound `NC(=O)c1ccn(-c2cccc(CN[C@H]3CCC[C@H](Nc4ccc5[nH]ncc5c4)C3)c2)c(=O)c1` gave a negative-log IC50 (pIC50) of 6.62.

As to `Cc1cccn(-c2cccc(CN[C@H]3CCC[C@H](Nc4ccc5[nH]ncc5c4)C3)c2)c1=O`, the pIC50 was 6.56.

For `Cc1cccn(-c2cccc(CN[C@H]3CCC[C@@H](Nc4ccc5[nH]ncc5c4)C3)c2)c1=O`, the pIC50 was 6.09.

As to `NC(=O)c1ccn(-c2cccc(CN[C@H]3CCC[C@@H](Nc4ccc5[nH]ncc5c4)C3)c2)c(=O)c1`, the pIC50 was 6.33.

As for `O=c1cc(-c2ccccc2)ccn1-c1cccc(CN[C@H]2CCC[C@@H](Nc3ccc4[nH]ncc4c3)C2)c1`, the pIC50 is 7.00.

`O=c1cc(F)ccn1-c1cccc(CN[C@H]2CCC[C@H](Nc3ccc4[nH]ncc4c3)C2)c1`: the pIC50 was 6.68.

`Cc1ccn(-c2cccc(CN[C@H]3CCC[C@@H](Nc4ccc5[nH]ncc5c4)C3)c2)c(=O)c1`: the pIC50 is 6.09.

`CCc1ccn(-c2cccc(CN[C@H]3CCC[C@H](Nc4ccc5[nH]ncc5c4)C3)c2)c(=O)c1C`: the pIC50 was 6.68.

On to `O=c1cc(F)ccn1-c1cccc(CN[C@H]2CCC[C@@H](Nc3ccc4[nH]ncc4c3)C2)c1`, for which the pIC50 is 6.56.

Regarding `N#Cc1ccn(-c2cccc(CN[C@H]3CCC[C@@H](Nc4ccc5[nH]ncc5c4)C3)c2)c(=O)c1`, the pIC50 was 6.57.

On to `O=c1ccccn1-c1cccc(CN[C@H]2CCC[C@@H](Nc3ccc4[nH]ncc4c3)C2)c1`, for which the pIC50 is 6.19.

Turning to `CCc1ccn(-c2cccc(CN[C@H]3CCC[C@@H](Nc4ccc5[nH]ncc5c4)C3)c2)c(=O)c1C`, the negative-log IC50 (pIC50) is 6.51.

As for `Cc1ccn(-c2cccc(CN[C@H]3CCC[C@H](Nc4ccc5[nH]ncc5c4)C3)c2)c(=O)c1`, the pIC50 was 6.77.

As for `CC(C)(C)c1ccn(-c2cccc(CN[C@H]3CCC[C@@H](Nc4ccc5[nH]ncc5c4)C3)c2)c(=O)c1`, the pIC50 was 6.47.

Compound `O=c1cc(C(F)(F)F)ccn1-c1cccc(CN[C@H]2CCC[C@@H](Nc3ccc4[nH]ncc4c3)C2)c1` gave a pIC50 of 6.01.

With `O=c1ccccn1-c1cccc(CN[C@H]2CCC[C@H](Nc3ccc4[nH]ncc4c3)C2)c1`, the pIC50 is 6.79.

`O=c1cc(-c2ccccc2)ccn1-c1cccc(CN[C@H]2CCC[C@H](Nc3ccc4[nH]ncc4c3)C2)c1` showed a negative logarithm of the IC50 (pIC50) of 7.02.

`Cc1ccc(=O)n(-c2cccc(CN[C@H]3CCC[C@@H](Nc4ccc5[nH]ncc5c4)C3)c2)c1` gave a pIC50 of 6.99.

`Cc1cc(=O)n(-c2cccc(CN[C@H]3CCC[C@@H](Nc4ccc5[nH]ncc5c4)C3)c2)cc1F` had a pIC50 of 6.67.

The compound `O=c1cc(C(F)(F)F)ccn1-c1cccc(CN[C@H]2CCC[C@H](Nc3ccc4[nH]ncc4c3)C2)c1` showed a pIC50 of 6.55.

Turning to `Cc1ccc(=O)n(-c2cccc(CN[C@H]3CCC[C@H](Nc4ccc5[nH]ncc5c4)C3)c2)c1`, the pIC50 was 6.82.

For the compound `CC(C)(C)c1ccn(-c2cccc(CN[C@H]3CCC[C@H](Nc4ccc5[nH]ncc5c4)C3)c2)c(=O)c1`, the pIC50 was 6.68.

For another assay, the target named is T2, Rho-associated protein kinase 2 (Homo sapiens, UniProt O75116). The assay can be described thus: Inhibition of ROCK2 (unknown origin).
T2 sequence (O75116 whole entry): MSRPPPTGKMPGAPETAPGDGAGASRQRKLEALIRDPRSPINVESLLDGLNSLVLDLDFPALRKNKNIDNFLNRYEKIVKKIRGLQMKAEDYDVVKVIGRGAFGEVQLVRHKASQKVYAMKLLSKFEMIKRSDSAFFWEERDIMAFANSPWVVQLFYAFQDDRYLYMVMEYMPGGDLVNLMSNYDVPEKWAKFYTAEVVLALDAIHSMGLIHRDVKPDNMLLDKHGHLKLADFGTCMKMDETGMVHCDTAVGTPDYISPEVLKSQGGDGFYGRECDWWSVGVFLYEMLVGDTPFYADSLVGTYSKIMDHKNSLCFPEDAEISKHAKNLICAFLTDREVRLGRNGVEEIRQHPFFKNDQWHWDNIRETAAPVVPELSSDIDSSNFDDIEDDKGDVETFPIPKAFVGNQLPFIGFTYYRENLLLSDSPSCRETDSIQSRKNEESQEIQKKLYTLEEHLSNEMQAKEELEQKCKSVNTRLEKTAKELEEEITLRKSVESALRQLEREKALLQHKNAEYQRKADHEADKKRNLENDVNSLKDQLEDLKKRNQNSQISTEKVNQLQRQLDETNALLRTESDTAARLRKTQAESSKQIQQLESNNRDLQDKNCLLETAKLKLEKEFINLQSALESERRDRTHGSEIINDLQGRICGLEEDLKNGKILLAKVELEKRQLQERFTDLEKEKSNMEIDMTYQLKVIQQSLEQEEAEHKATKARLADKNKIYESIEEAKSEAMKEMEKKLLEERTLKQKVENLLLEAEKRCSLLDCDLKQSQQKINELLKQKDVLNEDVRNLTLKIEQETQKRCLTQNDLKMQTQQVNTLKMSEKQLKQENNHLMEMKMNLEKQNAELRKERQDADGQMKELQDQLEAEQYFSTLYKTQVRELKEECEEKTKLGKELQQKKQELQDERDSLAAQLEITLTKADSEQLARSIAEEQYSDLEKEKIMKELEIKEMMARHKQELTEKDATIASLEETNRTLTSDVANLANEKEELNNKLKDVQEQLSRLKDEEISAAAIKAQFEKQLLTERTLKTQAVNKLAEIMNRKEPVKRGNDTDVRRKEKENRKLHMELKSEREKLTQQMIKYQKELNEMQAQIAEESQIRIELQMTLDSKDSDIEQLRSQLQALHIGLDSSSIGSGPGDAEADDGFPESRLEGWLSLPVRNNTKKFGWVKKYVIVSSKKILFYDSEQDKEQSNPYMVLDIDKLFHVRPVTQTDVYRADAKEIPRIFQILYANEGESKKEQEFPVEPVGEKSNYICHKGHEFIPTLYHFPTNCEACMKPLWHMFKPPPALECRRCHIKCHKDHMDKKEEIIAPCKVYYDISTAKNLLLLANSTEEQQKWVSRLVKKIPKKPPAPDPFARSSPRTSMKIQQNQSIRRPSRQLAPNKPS
As for `COc1cc(-c2cn[nH]c2)cc2c(=O)[nH]c(C3COc4ccc(OCCN(C)C)cc4C3)nc12` (stereo not given), the pIC50 was 7.92.

For the next assay, the target named is T1, Rho-associated protein kinase 1. The assay can be described thus: Inhibition of ROCK1 (unknown origin).
In turn, `COc1cc(-c2cn[nH]c2)cc2c(=O)[nH]c(C3COc4ccc(OCCN(C)C)cc4C3)nc12` (stereo not given) showed a pIC50 of 6.82.

Tested on in another assay: not listed separately
The assay can be described thus: Selectivity ratio of IC50 for ROCK1 (unknown origin) to IC50 for ROCK2 (unknown origin).
For the compound `NC(=O)c1ccn(-c2cccc(CN[C@H]3CCC[C@H](Nc4ccc5[nH]ncc5c4)C3)c2)c(=O)c1`, the Ratio IC50 is 2.

As for `Cc1cccn(-c2cccc(CN[C@H]3CCC[C@H](Nc4ccc5[nH]ncc5c4)C3)c2)c1=O`, the Ratio IC50 was determined as 15.

`Cc1cccn(-c2cccc(CN[C@H]3CCC[C@@H](Nc4ccc5[nH]ncc5c4)C3)c2)c1=O`: the Ratio IC50 is 5.

Take `NC(=O)c1ccn(-c2cccc(CN[C@H]3CCC[C@@H](Nc4ccc5[nH]ncc5c4)C3)c2)c(=O)c1`: the Ratio IC50 worked out at 4.

On to `O=c1cc(-c2ccccc2)ccn1-c1cccc(CN[C@H]2CCC[C@@H](Nc3ccc4[nH]ncc4c3)C2)c1`, for which the Ratio IC50 was 59.

Turning to `O=c1cc(F)ccn1-c1cccc(CN[C@H]2CCC[C@H](Nc3ccc4[nH]ncc4c3)C2)c1`, the Ratio IC50 amounted to 6.

In the case of `Cc1ccn(-c2cccc(CN[C@H]3CCC[C@@H](Nc4ccc5[nH]ncc5c4)C3)c2)c(=O)c1`, the Ratio IC50 was 68.

Regarding `CCc1ccn(-c2cccc(CN[C@H]3CCC[C@H](Nc4ccc5[nH]ncc5c4)C3)c2)c(=O)c1C`, the Ratio IC50 was 16.

For the compound `O=c1cc(F)ccn1-c1cccc(CN[C@H]2CCC[C@@H](Nc3ccc4[nH]ncc4c3)C2)c1`, the Ratio IC50 is 3.

Regarding `N#Cc1ccn(-c2cccc(CN[C@H]3CCC[C@@H](Nc4ccc5[nH]ncc5c4)C3)c2)c(=O)c1`, the Ratio IC50 was found to be 4.

Consider `O=c1ccccn1-c1cccc(CN[C@H]2CCC[C@@H](Nc3ccc4[nH]ncc4c3)C2)c1`, for which the Ratio IC50 stood at 9.

As to `CCc1ccn(-c2cccc(CN[C@H]3CCC[C@@H](Nc4ccc5[nH]ncc5c4)C3)c2)c(=O)c1C`, the Ratio IC50 was determined as 52.

Take `Cc1ccn(-c2cccc(CN[C@H]3CCC[C@H](Nc4ccc5[nH]ncc5c4)C3)c2)c(=O)c1`: the Ratio IC50 amounted to 7.

As to `CC(C)(C)c1ccn(-c2cccc(CN[C@H]3CCC[C@@H](Nc4ccc5[nH]ncc5c4)C3)c2)c(=O)c1`, the Ratio IC50 turned out to be 216.

Take `O=c1cc(C(F)(F)F)ccn1-c1cccc(CN[C@H]2CCC[C@@H](Nc3ccc4[nH]ncc4c3)C2)c1`: the Ratio IC50 came out at 5.

Turning to `O=c1ccccn1-c1cccc(CN[C@H]2CCC[C@H](Nc3ccc4[nH]ncc4c3)C2)c1`, the Ratio IC50 turned out to be 4.

For `O=c1cc(-c2ccccc2)ccn1-c1cccc(CN[C@H]2CCC[C@H](Nc3ccc4[nH]ncc4c3)C2)c1`, the Ratio IC50 turned out to be 32.

On to `Cc1ccc(=O)n(-c2cccc(CN[C@H]3CCC[C@@H](Nc4ccc5[nH]ncc5c4)C3)c2)c1`, for which the Ratio IC50 was determined as 1.

Regarding `Cc1cc(=O)n(-c2cccc(CN[C@H]3CCC[C@@H](Nc4ccc5[nH]ncc5c4)C3)c2)cc1F`, the Ratio IC50 came out at 8.

Turning to `O=c1cc(C(F)(F)F)ccn1-c1cccc(CN[C@H]2CCC[C@H](Nc3ccc4[nH]ncc4c3)C2)c1`, the Ratio IC50 was 2.

Take `Cc1ccc(=O)n(-c2cccc(CN[C@H]3CCC[C@H](Nc4ccc5[nH]ncc5c4)C3)c2)c1`: the Ratio IC50 came out at 4.

For `CC(C)(C)c1ccn(-c2cccc(CN[C@H]3CCC[C@H](Nc4ccc5[nH]ncc5c4)C3)c2)c(=O)c1`, the Ratio IC50 is 162.

The next assay deals with T2, Rho-associated protein kinase 2. The assay is described as follows: Inhibition of ROCK2 (unknown origin) by HTRF assay.
In turn, `NC(=O)c1ccn(-c2cccc(CN[C@H]3CCC[C@H](Nc4ccc5[nH]ncc5c4)C3)c2)c(=O)c1` had a pIC50 of 6.99.

`Cc1cccn(-c2cccc(CN[C@H]3CCC[C@H](Nc4ccc5[nH]ncc5c4)C3)c2)c1=O` showed a pIC50 of 7.73.

Regarding `Cc1cccn(-c2cccc(CN[C@H]3CCC[C@@H](Nc4ccc5[nH]ncc5c4)C3)c2)c1=O`, the pIC50 is 6.82.

For the compound `NC(=O)c1ccn(-c2cccc(CN[C@H]3CCC[C@@H](Nc4ccc5[nH]ncc5c4)C3)c2)c(=O)c1`, the pIC50 was 6.88.

The compound `O=c1cc(-c2ccccc2)ccn1-c1cccc(CN[C@H]2CCC[C@@H](Nc3ccc4[nH]ncc4c3)C2)c1` gave a pIC50 of 8.77.

Take `O=c1cc(F)ccn1-c1cccc(CN[C@H]2CCC[C@H](Nc3ccc4[nH]ncc4c3)C2)c1`: the pIC50 is 7.44.

Turning to `Nc1ccn(-c2cccc(CN[C@H]3CCC[C@@H](Nc4ccc5[nH]ncc5c4)C3)c2)c(=O)c1`, the pIC50 was 7.11.

In the case of `Nc1ccn(-c2cccc(CNC3CCCC(Nc4ccc5[nH]ncc5c4)C3)c2)c(=O)n1` (stereo not given), the pIC50 was 9.70.

Turning to `Cc1ccn(-c2cccc(CN[C@H]3CCC[C@@H](Nc4ccc5[nH]ncc5c4)C3)c2)c(=O)c1`, the pIC50 was 7.92.

In turn, `CCc1ccn(-c2cccc(CN[C@H]3CCC[C@H](Nc4ccc5[nH]ncc5c4)C3)c2)c(=O)c1C` showed a pIC50 of 7.88.

Compound `O=c1cc(F)ccn1-c1cccc(CN[C@H]2CCC[C@@H](Nc3ccc4[nH]ncc4c3)C2)c1` showed a negative logarithm of the IC50 (pIC50) of 7.06.

Take `Nc1ccn(-c2ccc(CN3CCCC(Nc4ccc5[nH]ncc5c4)C3)cc2)c(=O)n1` (stereo not given): the pIC50 was 8.30.

`N#Cc1ccn(-c2cccc(CN[C@H]3CCC[C@@H](Nc4ccc5[nH]ncc5c4)C3)c2)c(=O)c1`: the negative logarithm of the IC50 (pIC50) was 7.11.

`O=c1ccccn1-c1cccc(CN[C@H]2CCC[C@@H](Nc3ccc4[nH]ncc4c3)C2)c1` had a pIC50 of 7.13.

As for `CCc1ccn(-c2cccc(CN[C@H]3CCC[C@@H](Nc4ccc5[nH]ncc5c4)C3)c2)c(=O)c1C`, the pIC50 was 8.21.

As to `Cc1ccn(-c2cccc(CN[C@H]3CCC[C@H](Nc4ccc5[nH]ncc5c4)C3)c2)c(=O)c1`, the pIC50 is 7.59.

For `CC(C)(C)c1ccn(-c2cccc(CN[C@H]3CCC[C@@H](Nc4ccc5[nH]ncc5c4)C3)c2)c(=O)c1`, the pIC50 is 8.80.

Regarding `CC(C)CCC(=O)Nc1ccn([C@H]2CC[C@H](O[C@H]3O[C@H](C)[C@@H](N(C)C)[C@H](O)[C@H]3O)[C@@H](C)O2)c(=O)n1`, the pIC50 was 7.14.

Turning to `Nc1ccn(-c2ccc(CNC3CCCC(Nc4ccc5[nH]ncc5c4)C3)cc2)c(=O)n1` (stereo not given), the pIC50 is 9.15.

With `Nc1nc(=O)n(-c2cccc(CN[C@H]3CCC[C@H](Nc4ccc5[nH]ncc5c4)C3)c2)cc1F`, the negative logarithm of the IC50 (pIC50) is 7.18.

`O=c1cc(C(F)(F)F)ccn1-c1cccc(CN[C@H]2CCC[C@@H](Nc3ccc4[nH]ncc4c3)C2)c1` gave a pIC50 of 6.68.

As for `Nc1nc(=O)n(-c2cccc(CN[C@H]3CCC[C@@H](Nc4ccc5[nH]ncc5c4)C3)c2)cc1F`, the pIC50 is 7.08.

Turning to `O=c1ccccn1-c1cccc(CN[C@H]2CCC[C@H](Nc3ccc4[nH]ncc4c3)C2)c1`, the pIC50 was 7.37.

In turn, `O=c1cc(-c2ccccc2)ccn1-c1cccc(CN[C@H]2CCC[C@H](Nc3ccc4[nH]ncc4c3)C2)c1` had a pIC50 of 8.52.

Take `Nc1ccn(-c2cccc(CN[C@H]3CCC[C@H](Nc4ccc5[nH]ncc5c4)C3)c2)c(=O)c1`: the pIC50 was 7.27.

In the case of `Cc1ccc(=O)n(-c2cccc(CN[C@H]3CCC[C@@H](Nc4ccc5[nH]ncc5c4)C3)c2)c1`, the pIC50 was 6.86.

In the case of `Nc1ccn(-c2ccc(CN3CCCCC(Nc4ccc5[nH]ncc5c4)C3)cc2)c(=O)n1` (stereo not given), the pIC50 was 8.70.

As to `Cc1cc(=O)n(-c2cccc(CN[C@H]3CCC[C@H](Nc4ccc5[nH]ncc5c4)C3)c2)cc1N`, the pIC50 is 6.25.

Turning to `Cc1cc(=O)n(-c2cccc(CN[C@H]3CCC[C@@H](Nc4ccc5[nH]ncc5c4)C3)c2)cc1N`, the pIC50 is 6.36.

Take `Cc1cc(=O)n(-c2cccc(CN[C@H]3CCC[C@@H](Nc4ccc5[nH]ncc5c4)C3)c2)cc1F`: the pIC50 was 7.57.

`Nc1ccn(-c2cccc(CN3CCCC(Nc4ccc5[nH]ncc5c4)C3)c2)c(=O)n1` (stereo not given) had a pIC50 of 9.00.

In the case of `O=c1cc(C(F)(F)F)ccn1-c1cccc(CN[C@H]2CCC[C@H](Nc3ccc4[nH]ncc4c3)C2)c1`, the pIC50 was 6.76.

Compound `Cc1ccc(=O)n(-c2cccc(CN[C@H]3CCC[C@H](Nc4ccc5[nH]ncc5c4)C3)c2)c1` showed a pIC50 of 7.45.

As to `CC(C)(C)c1ccn(-c2cccc(CN[C@H]3CCC[C@H](Nc4ccc5[nH]ncc5c4)C3)c2)c(=O)c1`, the pIC50 is 8.89.
